Assay: In vitro liver microsome experiment (glucuronidation with UDPGA, UPLC-MS/MS detection)
Format: in vitro ADME
Conditions: pooled human liver microsomes, alamethicin, 37° C., incubation 0 min and 6 h
Procedure: In Vitro Liver Microsome Experiment
Experimental group: 136 μL of 50 mM Tris buffer was added to a 1.5 mL centrifuge tube, added with 20 μL of 100 mM aqueous D-glucaro-1,4-lactone solution, 10 μL of 10 mM aqueous magnesium chloride (MgCl2) solution, 10 μL of 40 mg/mL pooled human liver microsomes, and 2 μL of 50 mg/mL alamethicin, respectively, and preincubated on ice for 15 min; 2 μL of 2 mg/mL substrate (3-PBA) was added, and preincubated with 100 mM uridine diphosphate glucuronic acid (UDPGA) solution for 5 min at 37° C.; 20 μL of preincubated UDPGA solution was added to the reaction system to start the reaction, and incubation proceeded. At 0 min and 6 h, 200 μL of glacial acetonitrile was added to the reaction system to terminate the reaction, respectively. The reaction system was vortexed for 1 min and centrifuged at 13,000 r/min for 10 min at 4° C. All supernatants were put in a test tube, nitrogen-blown at 37° C., and reconstituted with 200 μL of methanol. The samples were analyzed and detected by UPLC-MS/MS. The difference between the blank group and the experimental group was only that 3-PBA was not added, and the difference between the control group and the experimental group was only that UDPGA was not added. […]

Row | Structure (SMILES) | phase II metabolism (formation of glucuronic acid conjugate) detected by UPLC-MS/MS
1 | O=C(O)c1cccc(Oc2ccccc2)c1 [3-PBA, 3-phenoxybenzoic acid] | underwent phase II metabolic reaction
2 | CC1(C)Cc2cccc(O)c2O1 [carbofuran phenol] | carbofuran phenol-glucuronic acid conjugate was detected

— patent US12600741B2, “3-phenoxybenzoic acid-glucuronic acid conjugate, and preparation method and use thereof” (Shanxi Medical University, priority 2023, dated 2026)
